Our source for the MIC values is ChEMBL document CHEMBL3779879, “Structural hybridization of three aminoglycoside antibiotics yields a potent broad-spectrum bactericide that eludes bacterial resistance enzymes” (2016).

For orientation: MIC means the smallest concentration in the dilution series that meets the test's criterion for growth inhibition. A low value points to inhibition by little substance.

Structures are written as SMILES. In brackets after ≈: the same amount, converted by molar mass.

Common to all, as to assay type: functional
In assay [1] the test system is Escherichia coli. Description: Antibacterial activity against Escherichia coli expressing AAC(3)-IV.
The test system of assay [2] is Klebsiella pneumoniae. Description: Antibacterial activity against Klebsiella pneumoniae ATCC 10031.
Assay [3] relates to Acinetobacter baumannii. Nature of the assay: Antibacterial activity against Acinetobacter baumannii.
Assay [4] concerns Escherichia coli. Description: Antibacterial activity against Escherichia coli expressing A-site methyltransferase ArmA.
Assay [5] has as its system Staphylococcus aureus. Description: Antibacterial activity against Staphylococcus aureus ATCC 29213.
Assay [6] has as its system Escherichia coli. Description: Antibacterial activity against Escherichia coli expressing APH(3')-Ib.
Assay [7] relates to Pseudomonas aeruginosa. Description: Antibacterial activity against Pseudomonas aeruginosa ATCC 27853 expressing APH(3')-IIa.
Assay [8] concerns Staphylococcus aureus. Nature of the assay: Antibacterial activity against Staphylococcus aureus expressing APH(3'/5'')-III.
For assay [9], the system named is Escherichia coli. Nature of the assay: Antibacterial activity against Escherichia coli ATCC 25922.
Assay [10] has as its system Staphylococcus aureus. Description: Antibacterial activity against Staphylococcus aureus expressing AAC(6')/APH(2'').
For assay [11], the system named is Enterobacter cloacae. Nature of the assay: Antibacterial activity against Enterobacter cloacae expressing APH(3')-I, ANT(2'')-I, AAC(6').
Assay [12] relates to Acinetobacter baumannii. Description: Antibacterial activity against Acinetobacter baumannii expressing AAC(3)-I, APH(3')-VI, ANT(2'')-I.
In assay [13] the test system is Staphylococcus aureus. Nature of the assay: Antibacterial activity against Staphylococcus aureus expressing ANT(4')-I.
Assay [14] concerns Pseudomonas aeruginosa. Description: Antibacterial activity against Pseudomonas aeruginosa expressing ANT(4')-II.
Assay [15] deals with Pseudomonas aeruginosa. Nature of the assay: Antibacterial activity against Pseudomonas aeruginosa expressing AAC(6')-II.
In assay [16] the test system is Escherichia coli. Nature of the assay: Antibacterial activity against Escherichia coli expressing ANT(2'')-I.

For `NCC[C@H](O)C(=O)N[C@@H]1C[C@H](N)[C@@H](O[C@H]2O[C@H](CN)[C@@H](O)[C@H](O)[C@H]2O)[C@H](O)[C@H]1O[C@H]1O[C@H](CO)[C@@H](O)[C@H](N)[C@H]1O` [AMIKACIN], the MIC was 2 µg/mL (≈ 3.42 µM) in [1]; 0.5 µg/mL (≈ 0.854 µM) in assay [2]; 2 µg/mL (≈ 3.42 µM) in assay [3]; above 64 µg/mL in assay [4]; 2 µg/mL (≈ 3.42 µM) in assay [5]; 0.5 µg/mL (≈ 0.854 µM) in assay [6]. Besides, the minimum inhibitory concentration (MIC) in assay [7] is 2 µg/mL (≈ 3.42 µM); in [8], 8 µg/mL (≈ 13.7 µM); in assay [9] it was 2 µg/mL (≈ 3.42 µM); in [10], 64 µg/mL (≈ 109 µM); in assay [11] it was 64 µg/mL (≈ 109 µM); in assay [12], above 64 µg/mL. The MIC in assay [13] amounted to 64 µg/mL (≈ 109 µM); in assay [14], 32 µg/mL (≈ 54.6 µM); in assay [15] it was 4 µg/mL (≈ 6.83 µM); in assay [16] it was 4 µg/mL (≈ 6.83 µM).

As for `NC[C@@H]1O[C@H](O[C@H]2[C@@H](O)[C@H](O[C@@H]3[C@@H](O)[C@H](N)C[C@H](N)[C@H]3O[C@H]3O[C@H](CO)[C@@H](O)[C@H](O)[C@H]3N)O[C@@H]2CO)[C@H](N)[C@@H](O)[C@@H]1O` [PAROMOMYCIN], the MIC in assay [1] is 8 µg/mL (≈ 13 µM); in [2], 2 µg/mL (≈ 3.25 µM); in assay [3] it was 4 µg/mL (≈ 6.5 µM); in assay [4], 4 µg/mL (≈ 6.5 µM); in assay [5] it was 2 µg/mL (≈ 3.25 µM); in [6], above 64 µg/mL. For the same compound, the MIC in assay [7] was above 64 µg/mL; in assay [8], above 64 µg/mL; in assay [9], 4 µg/mL (≈ 6.5 µM); in assay [10] it was above 64 µg/mL; in assay [11], above 64 µg/mL; in assay [12], above 64 µg/mL. The MIC was above 64 µg/mL in assay [13], above 64 µg/mL in [14], above 64 µg/mL in assay [15] and 4 µg/mL (≈ 6.5 µM) in assay [16].

On to `NC[C@H]1O[C@H](O[C@H]2[C@H](O[C@@H]3O[C@H](CO)[C@@H](O)[C@H]3O)[C@@H](O)[C@H](N)C[C@@H]2N)[C@H](N)[C@@H](O)[C@@H]1O` [RIBOSTAMYCIN], for which the MIC is above 64 µg/mL in assay [1]; 2 µg/mL (≈ 4.4 µM) in assay [2]; 8 µg/mL (≈ 17.6 µM) in assay [3]; 8 µg/mL (≈ 17.6 µM) in assay [4]; 16 µg/mL (≈ 35.2 µM) in assay [5]; above 64 µg/mL in assay [6]. Also, the MIC in assay [7] was above 64 µg/mL; in assay [8], above 64 µg/mL; in [9], 8 µg/mL (≈ 17.6 µM); in assay [10] it was above 64 µg/mL; in assay [11], above 64 µg/mL; in assay [12], above 64 µg/mL. For the same compound, the MIC in assay [13] is above 64 µg/mL; in assay [14], above 64 µg/mL; in assay [15] it was above 64 µg/mL; in assay [16], 8 µg/mL (≈ 17.6 µM).

With `CN[C@@H]1[C@@H](O)[C@@H](O[C@@H]2[C@@H](O)[C@H](O[C@H]3OC(CN)=CC[C@H]3N)[C@@H](N)C[C@H]2N)OC[C@]1(C)O` [SISOMICIN], the MIC was 32 µg/mL (≈ 71.5 µM) in assay [1]; 0.25 µg/mL (≈ 0.559 µM) in [2]; 0.5 µg/mL (≈ 1.12 µM) in assay [3]; above 64 µg/mL in [4]; 0.5 µg/mL (≈ 1.12 µM) in assay [5]; 0.25 µg/mL (≈ 0.559 µM) in assay [6]. For the same compound, the minimum inhibitory concentration (MIC) was 0.5 µg/mL (≈ 1.12 µM) in assay [7]; 0.25 µg/mL (≈ 0.559 µM) in assay [8]; 0.5 µg/mL (≈ 1.12 µM) in assay [9]; above 64 µg/mL in assay [10]; above 64 µg/mL in assay [11]; above 64 µg/mL in [12]. Besides, the minimum inhibitory concentration (MIC) in assay [13] is 1 µg/mL (≈ 2.23 µM); in [14], 1 µg/mL (≈ 2.23 µM); in assay [15] it was 32 µg/mL (≈ 71.5 µM); in [16], 64 µg/mL (≈ 143 µM).
